The conditions of data set [1]: cited from earlier work.
Data set [2] relates to patients with an autism spectrum disorder or an attention deficit disorder. As to the method: The patient is dosed with L-methylfolate orally once a day according to preparations available. The patient takes the medication at the same time of day and with a snack or meal. The patient is initially dosed with L-methylfolate according to weight as follows: • 25-45 lbs (11-20 kg): 2.5 mg • 46-60 lbs (21-27 kg): 5 mg • 61-90 lbs (28-41 kg): 7.5 mg • 91+ lbs (42+kg): 7.5-15 mg Dose Modifications and Duration of Therapy
L-methylfolate is administered in doses and forms appropriate for age. L-methylfolate is titrated upward as indicated by behavior improvement according to the results from the screens. Titration may occur from week 1 through 30 days as indicated by the physician. From 30 days to 90 days, the achieved dose at 30 days is maintained until 90 days to observe for tolerance to drug, side effects. During this time, if the child is not weaned from stimulant medications, attempts are made to lower the stimulant as tolerated and discontinue stimulants if at all possible.
In implementing therapy the first consideration is the presence of clinical signs consistent with previous or current diagnosis of an autism spectrum disorder or an attention deficit disorder. […] The established diagnosis was not a sole indicator for therapy.
Second, a review of the family history is necessary. […] Parents were questioned about the presence of ADHD or autism spectrum disorders in the immediate family or extended family. Of particular interest was the presence of other neuropsychiatric conditions, such as depression, anxiety, and bipolar disorder. Parents also were queried regarding the presence of heart disease, difficulties with pregnancy due infertility or miscarriages, leukemia, gastric and colon cancers, breast cancer and stroke. In elderly members of the family, the occurrence of dementia, Alzheimer's, and Parkinson's was also discussed. The above diseases have also been associated to varying degrees with the methylenetetrahydrofolate reductase defect.
Third, blood samples were collected and evaluated. The laboratory exams completed on the blood samples were: a complete blood count with differential, serum folate, serum B12, and serum homocysteine. The tests were performed to establish a baseline for red cell morphology while evaluating for any pre-existing pathologies related to anemia, leukemia, or other blood dycrasias. Serum folate and B12 have been implicated in certain pathologies of the red blood cell and are critical components in folate metabolism. Vitamin B12 in the range of 400 pg/ml or less has been associated with neuropsychiatric sequelae in 5-10% of population. (Quest Labs) Finally, elevated homocysteine levels in the serum have been associated with various disease states, particularly in the presence of the methylenetetrahydrofolate reductase gene polymorphisms. […] However, a few researchers have been able to evaluate severely compromised children.
Fourth, serum was evaluated for the presence of methylenetetrahydrofolate reductase polymorphisms as a predictor of condition severity and response to therapy. Given the expense of these analyses, it was decided to delay evaluation of the serum for the polymorphisms until a clinic response was determined.
In a preliminary trial, nineteen patients, ages 4-43 years, (3 female, 16 male) were randomly selected over the course of three months. Patients were permitted to remain on current medication or supplemental, i.e., fish oil and vitamins, therapies at parental request.

A further data set relates to CP-450 system. As to conditions: cited from earlier work.
The conditions of data set [3]: via the kidneys; cited from earlier work.
For data set [4] the following is noted: as a medical food or other suitable formulation; cited from earlier work.
Setting [5] is: of the 14 patients, parental report.

As to `Nc1nc(=O)c2c([nH]1)NCC(CNc1ccc(C(=O)N[C@@H](CCC(=O)O)C(=O)O)cc1)N2C=O` (mixture of isomers) [folinic acid], the “side effect, anecdotal report” value in data set [1] (one patient, dose increased to 1 mg/kg/d) is on record as “worsening of behavior symptoms”.

`CN1c2c(nc(N)[nH]c2=O)NC[C@@H]1CNc1ccc(C(=O)N[C@@H](CCC(=O)O)C(=O)O)cc1` [L-methylfolate, 6(S)-5-methyltetrahydrofolate]: the “response to therapy as indicated by parents' correspondence and office visits” value in data set [2] (14 remaining of 19 patients, ages 4-43 years, oral once daily, dose by weight 2.5-15 mg, more stable mood, increased attentiveness, improved sleep hygiene) is “all have had a response to therapy”. Besides, in data set [2] (setting [5]), the “patients with intermediate responses” value was “two” and the “patients with significant improvements” value is 12. For the same molecule, the side effects result in data set [2] (preliminary experience) is “No side effects have been reported”. In addition, in data set [2] (preliminary trial), the “time course of initial improvement” value was 3-5 days, two weeks, or 4-6 weeks. Further, the “clinical response in patients negative for MTHFR gene polymorphisms” value in data set [2] (two children, parental reports) is reported as “responding clinically”. In addition, the “response in patients positive for MTHFR gene polymorphisms” value in data set [2] (two of four patients with MTHFR analyses) is given as “positive response to therapy”. The allergic reactions result in data set [1] (oral use) is recorded as “Allergic reactions have been documented”. Moreover, the “effect on CP-450 system” value in the data set with CP-450 system was “does not affect CP-450 system”. Further, the excretion entry in data set [3] is given as “rapidly excreted via the kidneys”. Besides, the “blood brain barrier crossing” value in data set [4] is “crosses the blood brain barrier”.

These data come from patent US8389535B2, “L-methylfolate treatment for psychiatric or neurologic disorders” (priority 2010, dated 2013).
